Source: patent publication US20230391741A1, “AGAROFURAN COMPOUND, PREPARATION METHOD THEREFOR, AND APPLICATION THEREOF” (BEIJING CHY PHARMACEUTICAL TECHNOLOGY CO, LTD., priority 2021, published 2023)
Values joined by “and” are separate entries in the source; they are usually repeats but may differ in a detail not shown here. Equal values may be shown once. Read-outs that look alike come from different tables or passages of the source. Values belong to the compound of their own block, whether it stands above or below them.

Experiment: Plasma pharmacokinetics after intraperitoneal injection in mouse (UPLC-MS/MS)
Format: in vivo
Conditions: for concentration at 5 min / concentration at 0.167 h / concentration at 0.25 h / concentration at 0.5 h / concentration at 1 h / concentration at 2 h / concentration at 4 h / concentration at 8 h / half-life / MRT / AUC(0-inf) / Cmax / Tmax / AUC(0-t) / MRT inf / concentration at 6 h: male, ICR; for concentration at 5 min / concentration at 0.167 h / concentration at 0.25 h / concentration at 0.5 h / concentration at 1 h / concentration at 2 h / concentration at 4 h / concentration at 8 h / half-life / MRT / concentration at 6 h: plasma; for concentration at 5 min / concentration at 0.167 h / concentration at 0.25 h / concentration at 0.5 h / concentration at 1 h / concentration at 2 h / concentration at 4 h / concentration at 8 h / concentration at 6 h: ip; for MRT: read-out: mean residence time (MRT)(0-t); for AUC(0-inf) / Cmax / Tmax / AUC(0-t) / MRT inf / AUClast/D / AUC—% Extrap—obs / T1/2: mouse plasma, prototype drug; for AUC(0-t): read-out: AUClast; for MRT inf: read-out: MRTInf—obs
Protocol: Positive control drug 4-butyl-α-agarofuran preparation (BAF) and Compound 2 preparation were administered intraperitoneally at a dose of 10 mg/kg/10 ml (calculated according to the crude drug), and a suspension was prepared by ultrasonic grinding with double distilled water. Male ICR mice, with a weight of 21-24 g, were purchased from SPF (Beijing) Biotechnology Co., Ltd.
12 mice were randomly divided into 4 groups, there were 3 parallel cross blood sampling points in each group (5 points in groups 1 and 3, and 6 points in groups 2 and 4), it was administered according to the weight, and blood was collected from the orbital venous plexus at 5 min, 10 min, […], 30 min, 1 h, 2 h, 4 h, 6 h, 8 h, 12 h, and 24 h after administration. The bloods at each time point were collected into Eppendorf (EP) tubes anticoagulated with heparin, and placed on ice and centrifuged at 8000 r/min×5 min, to separate plasma for later use.
20 μl of mouse blank plasma was taken, 55 μl of acetonitrile containing an internal standard solution (200 ng/mL, BAF crude drug and Compound 2 crude drug are mutual internal standards, namely BAF was used as the internal standard of Compound 2, and Compound 2 was used as the internal standard of BAF, similarly hereinafter) is added, 5 μl of a methanol working solution of the compound BAF or Compound 2 with different concentrations was respectively added and mixed uniformly, so that its final plasma concentrations were 0.2, 0.5, 2, 5, 10, 25, 50, 100, 200, 500, 750, and 1000 ng/ml respectively, centrifugation was conducted twice at a high speed of 13000 r/min×5 min, and 5 μl of a supernatant was taken for UPLC-MS/MS analysis.
10 μL of plasma was taken, 30 μL of acetonitrile containing internal standard solution (100 ng/mL) was added to precipitate proteins, after the material was centrifuged twice at a high speed of 13000 r/min×5 min, 5 μl of a supernatant was taken for UPLC-MS/MS analysis.
Chromatographic column: Symmetry C8 (2.1 mm×50 mm, 3.5 μm), column temperature: 25° C., mobile phase: acetonitrile (0.1% formic acid): water (0.1% formic acid)=70:30 gradient elution, flow rate: 0.2 mL/min, Parallel Reaction Monitoring (PRM) detection, BAF: m/z 263.2→245.2; and Compound 2: m/z 317.2→299.2.

[1] = mouse, 10 mg/kg, IP 10 mg/kg, 5 min, read-out: Plasma concentration, Mean
[2] = mouse, 10 mg/kg, IP 10 mg/kg, 0.167 h, read-out: Plasma concentration, Mean
[3] = mouse, 10 mg/kg, IP 10 mg/kg, 0.167 h, read-out: Plasma concentration, individual mice 1-3
[4] = mouse, 10 mg/kg, IP 10 mg/kg, 0.25 h, read-out: Plasma concentration, Mean
[5] = mouse, 10 mg/kg, IP 10 mg/kg, 0.5 h, read-out: Plasma concentration, Mean
[6] = mouse, 10 mg/kg, IP 10 mg/kg, 0.5 h, read-out: Plasma concentration, individual mice 1-3
[7] = mouse, 10 mg/kg, IP 10 mg/kg, 1 h, read-out: Plasma concentration, Mean
[8] = mouse, 10 mg/kg, IP 10 mg/kg, 2 h, read-out: Plasma concentration, Mean
[9] = mouse, 10 mg/kg, IP 10 mg/kg, 2 h, read-out: Plasma concentration, individual mice 1-3
[10] = mouse, 10 mg/kg, IP 10 mg/kg, 4 h, read-out: Plasma concentration, Mean
[11] = mouse, 10 mg/kg, IP 10 mg/kg, 8 h, read-out: Plasma concentration, individual mice 1-3

Plasma concentration, individual mice 1-3 (IP 10 mg/kg, 5 min, 10 mg/kg): 413 ng/mL and 295 ng/mL and 194 ng/mL
Plasma concentration, individual mice 1-3 (IP 10 mg/kg, 0.167 h, 10 mg/kg): 133 ng/mL and 204 ng/mL
Plasma concentration, individual mice 1-3 (IP 10 mg/kg, 0.25 h, 10 mg/kg): 364 ng/mL and 132 ng/mL and 91.8 ng/mL
Plasma concentration, individual mice 1-3 (IP 10 mg/kg, 0.5 h, 10 mg/kg): 45.2 ng/mL and 38.9 ng/mL
Plasma concentration, individual mice 1-3 (IP 10 mg/kg, 1 h, 10 mg/kg): 54.6 ng/mL and 22.2 ng/mL and 24.4 ng/mL
Plasma concentration, individual mice 1-3 (IP 10 mg/kg, 2 h, 10 mg/kg): 6.91 ng/mL and 6.54 ng/mL
Plasma concentration, individual mice 1-3 (IP 10 mg/kg, 4 h, 10 mg/kg): 11.3 ng/mL and 2.09 ng/mL and 2.90 ng/mL
Plasma concentration, individual mice 1-3 (IP 10 mg/kg, 6 h): BLOQ
Plasma concentration, individual mice 1-3 (IP 10 mg/kg, 8 h, 10 mg/kg): BLOQ
Plasma concentration, individual mice 1-3 (IP 10 mg/kg, 12 h): BLOQ
Plasma concentration, individual mice 1-3 (IP 10 mg/kg, 24 h): BLOQ
concentration at 5 min [1]: 301 ng/mL
concentration at 0.167 h [2]: 179 ng/mL
concentration at 0.167 h [3]: 201 ng/mL
concentration at 0.25 h [4]: 196 ng/mL
concentration at 0.5 h [5]: 42 ng/mL
concentration at 0.5 h [6]: 41.9 ng/mL
concentration at 1 h [7]: 33.7 ng/mL
concentration at 2 h [8]: 6.52 ng/mL
concentration at 2 h [9]: 6.1 ng/mL
concentration at 4 h [10]: 5.4 ng/mL
concentration at 8 h [11]: 4.03 ng/mL
half-life (mouse, IP 10 mg/kg): 1.29 h
MRT (mouse, IP 10 mg/kg): 1.05 h
AUC(0-inf) (IP 10 mg/kg): 139 ng·h/mL
Cmax (IP 10 mg/kg): 301 ng/mL
Tmax (IP 10 mg/kg): 5 min
AUC(0-t) (IP 10 mg/kg): 129 ng·h/mL
MRT inf (IP 10 mg/kg): 1.05 h
AUClast/D (IP 10 mg/kg): 12.9 kg·ng·h/mL/mg
AUC—% Extrap—obs (IP 10 mg/kg): 7.24%
T1/2 (IP 10 mg/kg): 1.29 h
Structure (SMILES): CCCCC1=CCC[C@@]2(C)CC[C@@H]3C[C@]12OC3(C)C [BAF, 4-butyl-α-agarofuran, reference compound]

Plasma concentration, individual mice 1-3 (IP 10 mg/kg, 5 min, 10 mg/kg): 407 ng/mL and 585 ng/mL
Plasma concentration, individual mice 1-3 (IP 10 mg/kg, 0.167 h, 10 mg/kg): 198 ng/mL and 214 ng/mL
Plasma concentration, individual mice 1-3 (IP 10 mg/kg, 0.25 h, 10 mg/kg): 201 ng/mL and 196 ng/mL
Plasma concentration, individual mice 1-3 (IP 10 mg/kg, 0.5 h, 10 mg/kg): 59.8 ng/mL and 67.5 ng/mL
Plasma concentration, individual mice 1-3 (IP 10 mg/kg, 1 h, 10 mg/kg): 41.2 ng/mL and 32.1 ng/mL
Plasma concentration, individual mice 1-3 (IP 10 mg/kg, 2 h, 10 mg/kg): 17.9 ng/mL and 22.3 ng/mL
Plasma concentration, individual mice 1-3 (IP 10 mg/kg, 4 h, 10 mg/kg): 8.03 ng/mL and 6.56 ng/mL
Plasma concentration, individual mice 1-3 (IP 10 mg/kg, 6 h, 10 mg/kg): 3.20 ng/mL and 3.79 ng/mL
Plasma concentration, individual mice 1-3 (IP 10 mg/kg, 8 h, 10 mg/kg): BLOQ
Plasma concentration, individual mice 1-3 (IP 10 mg/kg, 12 h): BLOQ
Plasma concentration, individual mice 1-3 (IP 10 mg/kg, 24 h): BLOQ
concentration at 5 min [1]: 450 ng/mL
concentration at 5 min (mouse, 10 mg/kg, IP 10 mg/kg, 5 min, read-out: Plasma concentration, individual mice 1-3): 359 ng/mL
concentration at 0.167 h [2]: 251 ng/mL
concentration at 0.167 h [3]: 341 ng/mL
concentration at 0.25 h [4]: 195 ng/mL
concentration at 0.25 h (mouse, 10 mg/kg, IP 10 mg/kg, 0.25 h, read-out: Plasma concentration, individual mice 1-3): 188 ng/mL
concentration at 0.5 h [5]: 69.5 ng/mL
concentration at 0.5 h [6]: 81.1 ng/mL
concentration at 1 h [7]: 32.5 ng/mL
concentration at 1 h (mouse, 10 mg/kg, IP 10 mg/kg, 1 h, read-out: Plasma concentration, individual mice 1-3): 24.3 ng/mL
concentration at 2 h [8]: 20 ng/mL
concentration at 2 h [9]: 19.7 ng/mL
concentration at 4 h [10]: 7.45 ng/mL
concentration at 4 h (mouse, 10 mg/kg, IP 10 mg/kg, 4 h, read-out: Plasma concentration, individual mice 1-3): 7.77 ng/mL
concentration at 6 h (mouse, 10 mg/kg, IP 10 mg/kg, 6 h, read-out: Plasma concentration, Mean): 3.56 ng/mL
concentration at 6 h (mouse, 10 mg/kg, IP 10 mg/kg, 6 h, read-out: Plasma concentration, individual mice 1-3): 3.69 ng/mL
concentration at 8 h [11]: 3.17 ng/mL
half-life (mouse, IP 10 mg/kg): 1.61 h
MRT (mouse, IP 10 mg/kg): 1.32 h
AUC(0-inf) (IP 10 mg/kg): 198 ng·h/mL
Cmax (IP 10 mg/kg): 450 ng/mL
Tmax (IP 10 mg/kg): 5 min
AUC(0-t) (IP 10 mg/kg): 190 ng·h/mL
MRT inf (IP 10 mg/kg): 1.32 h
AUClast/D (IP 10 mg/kg): 19 kg·ng·h/mL/mg
AUC—% Extrap—obs (IP 10 mg/kg): 4.16%
T1/2 (IP 10 mg/kg): 1.61 h
Pharmacokinetic properties compared with BAF (mouse, IP): better pharmacokinetic properties
AUC(0-t) as percentage of BAF (mouse, IP 10 mg/kg): 142%
Cmax as percentage of BAF (mouse, IP 10 mg/kg): 150%
Structure (SMILES): CC1(C)O[C@]23C[C@H]1CC[C@]2(C)CCC=C3CCCC(F)(F)F [Compound 2, (1R,6S,9R)6,10,10-trimethyl-2-(4,4,4-trifluorobutyl)-11-oxatricyclo [7.2.1.0^1,6]dodec-2-ene]
